One test concerns the target Prothrombin (Homo sapiens, UniProt P00734). Description: Enzyme Assay and Determination of the Inhibition Constants. Particulars: pH 7.5; 22 °C.
The target of another test is T1, Serine protease 1 (Bos taurus, UniProt P00760).
T1 sequence (P00760 whole entry): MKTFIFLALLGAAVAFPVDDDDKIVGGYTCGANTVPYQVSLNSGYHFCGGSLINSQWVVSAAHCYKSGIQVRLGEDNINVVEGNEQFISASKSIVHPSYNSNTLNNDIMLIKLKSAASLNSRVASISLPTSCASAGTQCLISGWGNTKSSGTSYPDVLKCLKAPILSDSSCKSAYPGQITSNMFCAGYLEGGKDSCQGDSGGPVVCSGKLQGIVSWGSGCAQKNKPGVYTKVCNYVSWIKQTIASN
The test is described as above. Particulars: pH 7.5; 22 °C.

Molecules are shown by their SMILES.

The compound `N=C(N)c1ccc(O)c(CN2CC[C@H](NS(=O)(=O)c3cc4ncccc4s3)C2=O)c1` showed a Ki at Prothrombin of more than 4 µM.
For the compound `O=C1[C@@H](NS(=O)(=O)c2cc3ncccc3s2)CCN1Cc1cc2ccncc2[nH]1` [N-[(3S)-1-(4,7-diazabicyclo[4.3.0]nona-2,4,8,10-tetraen-8-ylmethyl)-2-oxo-pyrrolidin-3-yl]-7-thia-2-azabicyclo[4.3.0]nona-2,4,8,10-tetraene-8-sulfonamide], the Ki at Prothrombin was more than 4 µM; at Serine protease 1, more than 2.9 µM.
The matching figures for `Nc1nccc2ccc(CN3CC[C@H](NS(=O)(=O)c4cc5ncccc5s4)C3=O)cc12` [N-[(3S)-1-[(1-aminoisoquinolin-7-yl)methyl]-2-oxopyrrolidin-3-yl]thieno[3,2-b]pyridine-2-sulfonamide]: more than 4 µM and more than 2.9 µM.

(Values after BindingDB's records for doi:10.1021/jm000940u (Aventis Pharma, 2000).)
